Literature values in patent US20200268770A1, “PHARMACEUTICAL COMPOSITION USED FOR TREATING METABOLIC SYNDROME DISORDERS, INFECTIOUS DISEASES, AND COMPLICATIONS THEREOF” (priority 2017, published 2020).
Where two headings read alike, the source gives them in different places.

Tests used:
3T3-L1 cells = 3T3-L1 cells stimulated by differentiation inducers
[1] = system: C57BL/6 mice fed with high fat foods
[2] = pre-treatment, C57BL/6 mice fed with high fat foods

In the case of `C=C(C)[C@@H]1CC[C@]2(C)CC[C@]3(C)[C@H](CC[C@@H]4[C@@]5(C)CC[C@H](O)C(C)(C)[C@@H]5CC[C@]43C)[C@@H]12` [lupeol], the glycated hemoglobin (after 21 days) is given as “decrease”, the nitric oxide (after 21 days) is given as “decrease” and the progression of diabetes (after 21 days) is given as “suppressed”. The serum glucose (after 21 days) was “decrease”, the serum insulin levels (after 21 days) was “concomitant increase” and the antioxidant levels (in vivo) was “increased”. The “content of thiobarbituric acid-reactive substances” value (in vivo) was “decrease”, the TG synthesis (3T3-L1 cells) was “strongly blocked” and the lipid droplet accumulation (3T3-L1 cells) was “strongly blocked”.

In the case of `C=C(C)[C@H]1CC=C(C)CC1` [d-limonene], the “fasting blood glucose levels” value [1, 2] is listed as “lowered”, the hepatic lipid accumulation [1, 2] is listed as “prevented” and the “serum triglycerides (TG)” value [1, 2] is listed as “lowered”. The “size of white and brown adipocytes” value [1, 2] was “decreased”, the “fasting blood glucose levels” value ([1]; therapeutic, obese mice) was “reduced” and the glucose tolerance ([1]; therapeutic, obese mice) was “reduced”. The “high-density lipoprotein cholesterol (HDL-c)” value ([1]; therapeutic, obese mice) was “increased”, the “low-density lipoprotein cholesterol (LDL-c)” value ([1]; therapeutic, obese mice) was “reduced” and the “serum TG” value ([1]; therapeutic, obese mice) was “reduced”.
